Source: US20170327556A1, “CARTILAGE-BINDING FUSION PROTEINS” (Merrimack Pharmaceuticals, Inc., priority 2013, published 2017)

Experiments:
[1] = ELISA binding of fusion proteins to heparan sulfate coated plates; conditions: 6x-Histidine-tagged proteins, FIG. 1A
Procedure: The specificity of binding of fusion proteins to the polysaccharides heparan sulfate and chondroitin sulfate may be determined by measuring the ability of the proteins to bind polysaccharides coated on an ELISA plate. Heparin Binding Plates (BD Biosciences) are coated with 50 μl of 2-10 μg/mL concentration of heparan sulfate or chondroitin sulfate (Sigma-Aldrich®) and incubated overnight at room temperature. Plates are washed with PBS and blocked with 250 μl of 0.2% gelatin in PBS for 1 hour at 37 C. Plates are then washed with PBS and tapped dry. 50 μl of protein in a dilution series is added to the wells and incubated for 2 hours at 37 C. The protein dilution series starts from 100 nM and includes ten additional three-fold dilutions in PBS, 0.2% gelatin and one blank (PBS, 0.2% gelatin only). After the plates are washed in PBS, 50 μl of anti-human IGF-1 (Abcam) at 1:250 in PBST is added and the plates are incubated for 1 hour rotating at room temperature. Plates are washed with PBST and 100 μl of 1:1000 anti-Rabbit-HRP (Cell Signaling Technology®) in PBST is added to each well and the plate is incubated for 1 hour at room temperature. […] The absorbance is measured at 450 nm and the resulting data is analyzed using GraphPad Prism® (GraphPad Software, San Diego, Calif.). […]

[2] = Stability of GF-Fus3 in human synovial fluid (western blot); assay type: in vitro ADME
Procedure: Synovial fluid was harvested from two human donors (see Table 14) within 24 hours of death, flash frozen and stored at −80° C. 2 μL of GF-Fus3 (0.45 mg/mL in PBS, Life Technologies Cat#10010-031) was added to 18 pt of synovial fluid (final GF-Fus3 concentration is 45 μg/mL) in a sealed 200 μL PCR tube and incubated at 37° C. for 0, 24, 48, 72, or 96 hours. Samples were diluted 1:10 in PBS and 10 μL (45 ng of GF-Fus3) was mixed with 3.3 μL of NuPAGE LDS Sample Buffer (Life Technologies, Cat# NP0007). GF-Fus3 standards were prepared at 100, 200, 400, 800, and 1600 ng/mL and 10 μL of each solution was mixed with 3.3 uL of NuPAGE LDS Sample Buffer. All samples and standards were loaded onto a 4-12% NuPAGE Bis-Tris Gel (Life Technologies, Cat# NP0321BOX), and run in NuPAGE MES SDS Running Buffer (Life Technologies, Cat# NP0002). Protein was transferred to a nitrocellulose membrane using an iBlot kit (Life Technologies, Cat# IB301001). Membrane was blocked in Odyssey Blocking Buffer (LI-COR, Cat#927-40000) for 1 hour at room temperature with agitation. Membrane was washed twice in PBS with 0.05% Tween20 (PBS-T) and incubated in 2 μg/mL anti-IGF-1 antibody (Millipore, Cat#05-172) overnight at 4° C. Membrane was washed three times in PBS-T and incubated with IRDye 800CW goat anti-mouse antibody (LI-COR, Cat#827-08364) diluted 1:2000 for 1 hour at room temperature. […]

[3] = tested on: bovine cartilage explants; test: In vitro joint disease model (IL-1), explanted bovine cartilage: ^35S-sulfate incorporation; assay type: cell-based; conditions: 4 and 12 day treatments, IL-1, FIG. 16

Substance: GF-Fus3: C-terminal fusion IGF-1(LR3)-PRELP heparin binding domain
- binding to heparan sulfate [1]: bound
- protein degradation band at less than 7.5 kDa ([2]; 45 ng loaded, after incubation in synovial fluid at 37° C.): ≤ 1 ng
- protein degradation in synovial fluid ([2]; 96 hours of 37° C. incubation, donors with grade 1 and grade 3 cartilage degeneration): minimal protein degradation
- cartilage matrix synthesis compared to GF-Fus3-His [3]: equivalent
